Measured values from US20060003016A1, “Therapeutic method for endolymphatic hydrops associated diseases” (priority 2004, published 2006).
Read-outs that look alike come from different tables or passages of the source.

Test system: patients with Meniere's disease and endolymphatic hydrops associated diseases
Conditions: for hearing level: case 4, right ear
Excerpt: In the present case who could be followed up for more than 24 months after treatment with water intake, the therapeutic effect was judged by using the criteria of AAO-HNS (1995)^14), 15). Proviso that in an examination on changes of the hearing, although the criteria in the four-frequency pure-tone averages (PTA) of AAO-HNS (1995)^14) adopted mean values of the hearing levels consisting of 500 Hz, 1000 Hz, 2000 Hz and 3000 Hz, in our case, the value of 4000 Hz was used in stead of that of 3000 Hz.
In each figure, a horizontal axis indicates frequency (Hz) and a vertical axis indicates hearing level. […] A graph in the upper position indicates better hearing level.

SMILES: O [water intake, water]
- hearing level after treatment (case 1, right ear, 125 Hz, Aug. 29, 2003, water intake 2 lit./day, before 45 dB): 0 dB
- hearing level after treatment (case 1, right ear, 250 Hz, Aug. 29, 2003, water intake 2 lit./day, before 45 dB): 5 dB
- hearing level after treatment (case 1, right ear, 500 Hz, Aug. 29, 2003, water intake 2 lit./day, before 45 dB): 15 dB
- hearing level after treatment (case 1, right ear, 1000 Hz, Aug. 29, 2003, water intake 2 lit./day, before 50 dB): 15 dB
- hearing level after treatment (case 1, right ear, 2000 Hz, Aug. 29, 2003, water intake 2 lit./day, before 35 dB): 15 dB
- hearing level after treatment (case 1, right ear, 4000 Hz, Aug. 29, 2003, water intake 2 lit./day, before 10 dB): 10 dB
- hearing level after treatment (case 1, right ear, 8000 Hz, Aug. 29, 2003, water intake 2 lit./day, before 15 dB): 25 dB
- hearing level after treatment, average (500-4000 Hz) (case 1, right ear, Aug. 29, 2003, water intake 2 lit./day, before 35 dB): 13.75 dB
- hearing level after treatment (case 3, left ear, 125 Hz, Jun. 7, 2002, poorest level 18-24 months after treatment, water intake, before 40 dB): 25 dB
- hearing level after treatment (case 3, left ear, 250 Hz, Jun. 7, 2002, poorest level 18-24 months after treatment, water intake, before 25 dB): 20 dB
- hearing level after treatment (case 3, left ear, 500 Hz, Jun. 7, 2002, poorest level 18-24 months after treatment, water intake, before 25 dB): 15 dB
- hearing level after treatment (case 3, left ear, 1000 Hz, Jun. 7, 2002, poorest level 18-24 months after treatment, water intake, before 15 dB): 5 dB
- hearing level after treatment (case 3, left ear, 2000 Hz, Jun. 7, 2002, poorest level 18-24 months after treatment, water intake, before 10 dB): 5 dB
- hearing level after treatment (case 3, left ear, 4000 Hz, Jun. 7, 2002, poorest level 18-24 months after treatment, water intake, before 45 dB): 5 dB
- hearing level after treatment (case 3, left ear, 8000 Hz, Jun. 7, 2002, poorest level 18-24 months after treatment, water intake, before 80 dB): 15 dB
- hearing level after treatment, average (500-4000 Hz) (case 3, left ear, Jun. 7, 2002, poorest level 18-24 months after treatment, water intake, before 23.75 dB): 7.5 dB
- hearing improved as compared with before the treatment (four-frequency PTA) (case 3, left ear, water intake): 16.25 dB
- category of change of hearing, AAO-HNS (1995) criteria (case 3, water intake): improved
- hearing level (125 Hz, Aug. 2003, water intake 1.5 lit./day): 25 dB
- hearing level (125 Hz, Dec. 2003, water intake 1.5 lit./day): 25 dB
- hearing level (125 Hz, Jan. 2004, water intake 1.5 lit./day): 25 dB
- hearing level (125 Hz, Jul. 2003, water intake 1.5 lit./day): 50 dB
- hearing level (125 Hz, Jun. 2003, water intake 1.5 lit./day from Jun. 20, 2003): 30 dB
- hearing level (125 Hz, Nov. 2003, water intake 1.5 lit./day): 25 dB
- hearing level (125 Hz, Oct. 2003, water intake 1.5 lit./day): 30 dB
- hearing level (125 Hz, Sep. 2003, water intake 1.5 lit./day): 30 dB
- hearing level (250 Hz, Aug. 2003, water intake 1.5 lit./day): 25 dB
- hearing level (250 Hz, Dec. 2003, water intake 1.5 lit./day): 25 dB
- hearing level (250 Hz, Jan. 2004, water intake 1.5 lit./day): 25 dB
- hearing level (250 Hz, Jul. 2003, water intake 1.5 lit./day): 45 dB
- hearing level (250 Hz, Jun. 2003, water intake 1.5 lit./day from Jun. 20, 2003): 35 dB
- hearing level (250 Hz, Nov. 2003, water intake 1.5 lit./day): 20 dB
- hearing level (250 Hz, Oct. 2003, water intake 1.5 lit./day): 30 dB
- hearing level (250 Hz, Sep. 2003, water intake 1.5 lit./day): 40 dB
- hearing level (500 Hz, Aug. 2003, water intake 1.5 lit./day): 25 dB
- hearing level (500 Hz, Dec. 2003, water intake 1.5 lit./day): 15 dB
- hearing level (500 Hz, Jan. 2004, water intake 1.5 lit./day): 20 dB
- hearing level (500 Hz, Jul. 2003, water intake 1.5 lit./day): 45 dB
- hearing level (500 Hz, Jun. 2003, water intake 1.5 lit./day from Jun. 20, 2003): 40 dB
- hearing level (500 Hz, Nov. 2003, water intake 1.5 lit./day): 20 dB
- hearing level (500 Hz, Oct. 2003, water intake 1.5 lit./day): 25 dB
- hearing level (500 Hz, Sep. 2003, water intake 1.5 lit./day): 40 dB
- hearing level (1000 Hz, Aug. 2003, water intake 1.5 lit./day): 30 dB
- hearing level (1000 Hz, Dec. 2003, water intake 1.5 lit./day): 25 dB
- hearing level (1000 Hz, Jan. 2004, water intake 1.5 lit./day): 25 dB
- hearing level (1000 Hz, Jul. 2003, water intake 1.5 lit./day): 50 dB
- hearing level (1000 Hz, Jun. 2003, water intake 1.5 lit./day from Jun. 20, 2003): 50 dB
- hearing level (1000 Hz, Nov. 2003, water intake 1.5 lit./day): 30 dB
- hearing level (1000 Hz, Oct. 2003, water intake 1.5 lit./day): 25 dB
- hearing level (1000 Hz, Sep. 2003, water intake 1.5 lit./day): 45 dB
- hearing level (2000 Hz, Aug. 2003, water intake 1.5 lit./day): 20 dB
- hearing level (2000 Hz, Dec. 2003, water intake 1.5 lit./day): 20 dB
- hearing level (2000 Hz, Jan. 2004, water intake 1.5 lit./day): 20 dB
- hearing level (2000 Hz, Jul. 2003, water intake 1.5 lit./day): 45 dB
- hearing level (2000 Hz, Jun. 2003, water intake 1.5 lit./day from Jun. 20, 2003): 25 dB
- hearing level (2000 Hz, Nov. 2003, water intake 1.5 lit./day): 20 dB
- hearing level (2000 Hz, Oct. 2003, water intake 1.5 lit./day): 20 dB
- hearing level (2000 Hz, Sep. 2003, water intake 1.5 lit./day): 40 dB
- hearing level (4000 Hz, Aug. 2003, water intake 1.5 lit./day): 30 dB
- hearing level (4000 Hz, Dec. 2003, water intake 1.5 lit./day): 30 dB
- hearing level (4000 Hz, Jan. 2004, water intake 1.5 lit./day): 25 dB
- hearing level (4000 Hz, Jul. 2003, water intake 1.5 lit./day): 60 dB
- hearing level (4000 Hz, Jun. 2003, water intake 1.5 lit./day from Jun. 20, 2003): 25 dB
- hearing level (4000 Hz, Nov. 2003, water intake 1.5 lit./day): 35 dB
- hearing level (4000 Hz, Oct. 2003, water intake 1.5 lit./day): 30 dB
